Assay results from patent US10759766B2, “Certain chemical entities, compositions, and methods” (NeuPharma, Inc., priority 2011, dated 2020).

Tests used:
[1] = target: BRAF (Homo sapiens (Human), UniProt P15056); assay: Z′-LYTE kinase inhibition assay (Invitrogen), BRAF; type: biochemical; details: 1 μM compound, Z′-LYTE method; read-out: % inhibition at 1 μM against BRAF
Procedure: Inhibitory activities Inhibitory activities of compounds against BRAF, and BRAF V600E were measured by Invitrogen using Z′-LYTE® Method as briefly described in the following. 4× Test compounds are dissolved in 1% DMSO. […] ATP solutions are diluted to a 4×ATP working concentration in Kinase Buffer (50 mM HEPES pH 7.5, 0.01% BRIJ-35, 10 mM MgCl2, 1 mM EGTA). Reaction started by 30-second shaking of mixture consisting of 2.5 μL 4× test compound, […] and 2.5 μL 4×ATP Solution on Bar-coded Corning, low volume NBS, black 384-well plate (Corning Cat. #3676). Then the mixture was incubated for 60-minute at room temperature for the kinase reaction, followed by addition of 5 μL of a 1:1024 dilution of development reagent A and 30-second plate shake. The mixture was then incubated for another 60-minute at room temperature for development reaction. Fluorescence was read by plate reader. IC50 was calculated by plotting the concentration of compound vs the percentage of inhibition in treated wells using GraphPad Prism 5.

[2] = target: BRAF V600E (Homo sapiens (Human), UniProt P15056, V600E); assay: Z′-LYTE kinase inhibition assay (Invitrogen), BRAF V600E; type: biochemical; details: Z′-LYTE method; for inhibition at 1 µM: 1 μM compound, read-out: % inhibition at 1 μM against BRAF V600E; for IC50: read-out: IC50 against BRAF V600E
Summary of the method: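 FRET-based Z′-LYTE peptide phosphorylation format in 50 mM HEPES pH 7.5, 0.01% BRIJ-35, 10 mM MgCl2, 1 mM EGTA with ATP. Kinase reaction 60 min at room temperature, then protease development step 60 min at room temperature before fluorescence read. IC50 from compound concentration versus percent inhibition.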

[3] = target: KDR (VEGFR2) (Homo sapiens (Human), UniProt P35968); assay: Z′-LYTE kinase inhibition assay (Invitrogen), KDR; type: biochemical; details: Z′-LYTE method; for inhibition at 1 µM: 1 μM compound, read-out: % inhibition at 1 μM against KDR; for IC50: read-out: IC50 against KDR
Summary of the method: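 Z′-LYTE FRET assay: 10 μL reactions with 0.5–11.7 ng KDR and 2 μM Tyr 01 peptide in 50 mM HEPES pH 7.5, 10 mM MgCl2, 1 mM EGTA, 0.01% BRIJ-35, 1 h at room temperature. Development Reagent B (1:256) added for 60 min, fluorescence read; IC50 from concentration–inhibition curves.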

[4] = tested on: A375 cells; assay: Inhibition of cancer cell growth, MTT assay, A375; type: cell-based; details: Homo sapiens, A-375, 72 h exposure
Summary of the method: (§1)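 IC50 derived from percent growth inhibition versus concentration, tested in triplicate. Growth inhibition came from MTT read at 570 nm after 72 h drug exposure, relative to viable cells at dosing. Cells (about 4000/well, RPMI 1640 + 10% FBS) adhered 24 h before treatment; final DMSO 1%.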

[5] = tested on: A549 cells; assay: Inhibition of cancer cell growth, MTT assay, A549; type: cell-based; details: Homo sapiens, A549, 72 h exposure
Summary of the method: as §1

Sequence of BRAF (P15056 whole entry): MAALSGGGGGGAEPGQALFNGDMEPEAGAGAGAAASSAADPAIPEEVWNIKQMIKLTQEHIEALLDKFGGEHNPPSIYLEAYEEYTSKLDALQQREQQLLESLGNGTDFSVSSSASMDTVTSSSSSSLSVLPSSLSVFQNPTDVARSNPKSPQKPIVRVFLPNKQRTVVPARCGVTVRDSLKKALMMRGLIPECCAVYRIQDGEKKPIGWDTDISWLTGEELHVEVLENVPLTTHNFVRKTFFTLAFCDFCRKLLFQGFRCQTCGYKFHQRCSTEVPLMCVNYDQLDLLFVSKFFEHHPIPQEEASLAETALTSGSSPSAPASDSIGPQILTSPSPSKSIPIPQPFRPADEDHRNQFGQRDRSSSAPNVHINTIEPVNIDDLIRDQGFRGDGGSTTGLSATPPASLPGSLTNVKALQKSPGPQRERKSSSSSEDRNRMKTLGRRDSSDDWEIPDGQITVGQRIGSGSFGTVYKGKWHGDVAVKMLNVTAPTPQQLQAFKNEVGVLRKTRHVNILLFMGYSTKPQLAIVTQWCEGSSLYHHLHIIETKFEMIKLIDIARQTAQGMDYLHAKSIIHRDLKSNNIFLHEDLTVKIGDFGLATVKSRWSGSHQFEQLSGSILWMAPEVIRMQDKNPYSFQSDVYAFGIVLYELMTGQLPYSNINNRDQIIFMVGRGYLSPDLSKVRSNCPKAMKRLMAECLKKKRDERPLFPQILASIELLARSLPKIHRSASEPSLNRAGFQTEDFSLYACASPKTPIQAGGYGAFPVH
Sequence of BRAF V600E (P15056 whole entry V600E): as the sequence (P15056 whole entry) above, with V600E counted along it
Sequence of KDR (VEGFR2) (P35968 20-1356): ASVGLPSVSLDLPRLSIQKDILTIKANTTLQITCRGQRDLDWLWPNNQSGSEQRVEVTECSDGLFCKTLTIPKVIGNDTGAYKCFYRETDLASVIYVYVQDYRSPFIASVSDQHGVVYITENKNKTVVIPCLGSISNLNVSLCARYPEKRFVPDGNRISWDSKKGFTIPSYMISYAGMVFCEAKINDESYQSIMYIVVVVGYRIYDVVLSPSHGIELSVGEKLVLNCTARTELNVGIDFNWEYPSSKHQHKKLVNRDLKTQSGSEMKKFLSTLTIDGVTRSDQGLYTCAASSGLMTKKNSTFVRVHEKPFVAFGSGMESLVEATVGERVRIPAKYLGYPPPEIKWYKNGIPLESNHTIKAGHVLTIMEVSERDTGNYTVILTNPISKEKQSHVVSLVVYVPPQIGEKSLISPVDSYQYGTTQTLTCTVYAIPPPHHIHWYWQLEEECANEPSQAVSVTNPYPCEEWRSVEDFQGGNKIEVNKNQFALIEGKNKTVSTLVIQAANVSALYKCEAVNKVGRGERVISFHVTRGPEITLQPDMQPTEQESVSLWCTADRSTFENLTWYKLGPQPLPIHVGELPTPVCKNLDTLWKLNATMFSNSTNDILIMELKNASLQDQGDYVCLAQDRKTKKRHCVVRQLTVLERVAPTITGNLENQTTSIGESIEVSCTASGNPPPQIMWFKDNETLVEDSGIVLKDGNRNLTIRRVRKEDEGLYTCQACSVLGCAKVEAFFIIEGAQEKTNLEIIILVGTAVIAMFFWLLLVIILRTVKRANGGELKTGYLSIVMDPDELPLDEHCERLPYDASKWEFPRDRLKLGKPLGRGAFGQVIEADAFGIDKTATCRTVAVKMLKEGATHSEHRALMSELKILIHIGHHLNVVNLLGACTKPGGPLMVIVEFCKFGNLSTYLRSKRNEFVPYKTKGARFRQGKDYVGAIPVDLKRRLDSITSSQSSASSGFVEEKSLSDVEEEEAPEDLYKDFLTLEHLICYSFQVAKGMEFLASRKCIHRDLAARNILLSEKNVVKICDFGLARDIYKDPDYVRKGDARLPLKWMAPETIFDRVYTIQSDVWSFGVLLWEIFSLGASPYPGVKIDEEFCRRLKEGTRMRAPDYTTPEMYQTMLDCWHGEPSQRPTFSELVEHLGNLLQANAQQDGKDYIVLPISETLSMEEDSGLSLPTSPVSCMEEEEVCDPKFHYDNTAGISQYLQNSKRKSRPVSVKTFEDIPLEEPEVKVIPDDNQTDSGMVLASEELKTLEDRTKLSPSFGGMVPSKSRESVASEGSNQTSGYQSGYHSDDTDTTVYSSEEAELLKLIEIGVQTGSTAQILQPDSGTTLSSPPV

inhibition at 1 µM [1] [%] | inhibition at 1 µM [2] [%] | inhibition at 1 µM [3] [%] | IC50 [4] [nM] | IC50 [5] [nM] | IC50 [2] [nM] | IC50 [3] [nM] | SMILES
70 to 89 | > 89 | > 89 | < 1000 | < 2000 | – | – | O=C(Nc1ccc(F)c(F)c1)Nc1ccc(F)c(C(=O)c2ccc3ncc(N4CCOCC4)nc3c2)c1 [Compound C046, 1-(3,4-difluorophenyl)-3-(4-fluoro-3-(3-morphlinoquinoxaline-6-carbonyl)phenyl)urea]
> 89 | > 89 | 70 to 89 | > 5000 | > 5000 | – | – | O=C(Nc1cncc(F)c1)Nc1ccc(F)c(C(=O)c2ccc3ncc(N4CCOCC4)nc3c2)c1 [Compound C079, 1-(4-fluoro-3-(3-morpholinoquinoxaline-6-carbonyl)phenyl)-3-(5-fluoropyridin-3-yl)urea]
70 to 89 | > 89 | > 89 | 1000 to 5000 | > 5000 | < 100 | < 100 | O=C(Nc1cccc(C(=O)c2ccc3ncc(-c4cccnc4)nc3c2)c1)Nc1ccc(Cl)c(C(F)(F)F)c1 [Compound C022, 1-(4-chloro-3-(trifluoromethyl)phenyl)-3-(3-(3-(pyridin-3-yl)quinoxaline-6-carbonyl)phenyl)urea]
> 89 | > 89 | > 89 | – | 2000 to 5000 | – | < 100 | O=C(Nc1ccc(F)cc1)Nc1ccc(F)c(C(=O)c2ccc3ncc(N4CCNCC4)nc3c2)c1 [Compound C100, 1-(4-fluoro-3-(3-(piperazin-1-yl)quinoxaline-6-carbonyl)phenyl)-3-(4-fluorophenyl)urea]
70 to 89 | > 89 | < 70 | 1000 to 5000 | < 2000 | – | – | O=C(Nc1cccc(F)c1)Nc1cccc(C(=O)c2ccc3nccnc3c2)c1 [Compound C001, 1-(3-fluorophenyl)-3-(3-(quinoxaline-6-carbonyl)phenyl)urea]
– | > 89 | < 70 | < 1000 | < 2000 | – | – | O=C(Nc1ccc(C(F)(F)F)cc1)Nc1ccc(F)c(C(=O)c2ccc3nccnc3c2)c1 [Compound C075, 1-(4-fluoro-3-(quinoxaline-6-carbonyl)phenyl)-3-(4-(trifluoromethyl)phenyl)urea]
– | > 89 | < 70 | 1000 to 5000 | > 5000 | – | – | O=C(Nc1cccc(Cl)c1)Nc1ccc(F)c(C(=O)c2ccc3nccnc3c2)c1 [Compound C072, 1-(3-chlorophenyl)-3-(4-fluoro-3-(quinoxaline-6-carbonyl)phenyl)urea]
– | > 89 | > 89 | 1000 to 5000 | > 5000 | – | – | NCCNc1cnc2ccc(C(=O)c3cc(NC(=O)Nc4ccc(F)cc4)ccc3F)cc2n1 [Compound C089, 1-(3-(3-((2-aminoethyl)amino)quinoxaline-6-carbonyl)-4-fluorophenyl)-3-(4-fluorophenyl)urea]
– | > 89 | < 70 | 1000 to 5000 | 2000 to 5000 | – | – | O=C(Nc1cc(F)cc(C(=O)c2ccc3ncc(N4CCOCC4)nc3c2)c1)Nc1ccc(Cl)c(F)c1 [Compound C051, 1-(4-chloro-3-fluorophenyl)-3-(3-fluoro-5-(3-morpholinoquinoxaline-6-carbonyl)phenyl)urea]
– | > 89 | > 89 | > 5000 | > 5000 | < 100 | < 100 | O=C(Nc1cccc(F)c1)Nc1cccc(C(=O)c2ccc3ncc(N4CCCC4)nc3c2)c1 [Compound C019, 1-(3-fluorophenyl)-3-(3-(3-(pyrrolidin-1-yl)quinoxaline-6-carbonyl)phenyl)urea]

Second part, the compound before the results:

SMILES | inhibition at 1 µM [1] [%] | inhibition at 1 µM [2] [%] | inhibition at 1 µM [3] [%] | IC50 [4] [nM] | IC50 [5] [nM] | IC50 [2] [nM] | IC50 [3] [nM]
O=C(Nc1cccc(Cl)c1)Nc1cccc(C(=O)c2ccc3nccnc3c2)c1 [Compound C003, 1-(3-chlorophenyl)-3-(3-(quinoxaline-6-carbonyl)phenyl)urea] | 70 to 89 | > 89 | 70 to 89 | < 1000 | 2000 to 5000 | – | –
O=C(Nc1ccc(F)c(C(=O)c2ccc3ncc(N4CCOCC4)nc3c2)c1)c1cccc(C(F)(F)F)c1 [Compound C141, N-(4-fluoro-3-(3-morpholinoquinoxaline-6-carbonyl)phenyl)-3-(trifluoromethyl)benzamide] | < 70 | > 89 | > 89 | < 1000 | < 2000 | < 100 | < 100
Cn1cc(-c2cnc3ccc(C(=O)c4cccc(NC(=O)Nc5ccc(Cl)c(C(F)(F)F)c5)c4)cc3n2)cn1 [Compound C028, 1-(4-chloro-3-(trifluoromethyl)phenyl)-3-(3-(3-(1-methyl-1H-pyrazol-4-yl)quinoxaline-6-carbonyl)phenyl)urea] | 70 to 89 | > 89 | > 89 | < 1000 | < 2000 | < 100 | < 100
O=C(Nc1cccc(C(=O)c2ccc3ncc(-c4cn[nH]c4)nc3c2)c1)c1ccc(Cl)c(C(F)(F)F)c1 [Compound C133, N-(3-(3-(1H-pyrazol-4-yl)quinoxaline-6-carbonyl)phenyl)-4-chloro-3-(trifluoromethyl)benzamide] | < 70 | 70 to 89 | > 89 | < 1000 | 2000 to 5000 | – | –
O=C(Nc1cccc(C(=O)c2ccc3nccnc3c2)c1)c1cccc(C(F)(F)F)c1 [Compound C110, N-(3-(quinoxaline-6-carbonyl)phenyl)-3-(trifluoromethyl)benzamide] | 70 to 89 | 70 to 89 | < 70 | > 5000 | 2000 to 5000 | – | –
O=C(Nc1cccc(C(=O)c2ccc3ncc(N4CCOCC4)nc3c2)c1)Nc1cccc(C(F)(F)F)c1 [Compound C017, 1-(3-(3-morpholinoquinoxaline-6-carbonyl)phenyl)-3-(3-(trifluoromethyl)phenyl)urea] | 70 to 89 | > 89 | > 89 | < 1000 | < 2000 | < 100 | < 100
O=C(Nc1cccc(C(F)(F)F)c1)Nc1cc(F)c(F)c(C(=O)c2ccc3nccnc3c2)c1F [Compound C006, 1-(2,4,5-trifluoro-3-(quinoxaline-6-carbonyl)phenyl)-3-(3-(trifluoromethyl)phenyl)urea] | < 70 | 70 to 89 | < 70 | > 5000 | > 5000 | – | –
O=C(Nc1cc(F)c(F)c(C(=O)c2ccc3ncc(N4CCOCC4)nc3c2)c1)c1cccc(F)c1 [Compound C144, N-(3,4-difluoro-5-(3-morpholinoquinoxaline-6-carbonyl)phenyl)-3-fluorobenzamide] | 70 to 89 | > 89 | 70 to 89 | 1000 to 5000 | 2000 to 5000 | – | –
O=C(Nc1cc(F)cc(C(=O)c2ccc3ncc(N4CCOCC4)nc3c2)c1)Nc1ccc(Cl)c(C(F)(F)F)c1 [Compound C031, 1-(4-chloro-3-(trifluoromethyl)phenyl)-3-(3-fluoro-5-(3-morpholinoquinoxaline-6-carbonyl)phenyl)urea] | < 70 | 70 to 89 | 70 to 89 | < 1000 | 2000 to 5000 | – | –
O=C(Nc1cccc(C(=O)c2ccc3nccnc3c2)c1)Nc1ccc(Cl)c(C(F)(F)F)c1 [Compound C004, 1-(4-chloro-3-(trifluoromethyl)phenyl)-3-(3-(quinoxaline-6-carbonyl)phenyl)urea] | 70 to 89 | > 89 | 70 to 89 | 1000 to 5000 | < 2000 | < 100 | < 100
O=C(Nc1cc(F)c(F)c(C(=O)c2ccc3ncc(N4CCOCC4)nc3c2)c1F)c1cccc(F)c1 [Compound C137, 3-fluoro-N-(2,4,5-trifluoro-3-(3-morpholinoquinoxaline-6-carbonyl)phenyl)benzamide] | – | 70 to 89 | 70 to 89 | > 5000 | > 5000 | – | –
